Assays:
NCI-H460 [1] = assay: Antitumor activity against human NCI-H460 cells xenografted in BALB/c mouse assessed as reduction in tumor volume at 20 mg/kg/day, ip for 15 days; format: functional; details: 360 h, time 15 day
NCI-H460 [2] = assay: Antitumor activity against human NCI-H460 cells xenografted in BALB/c mouse assessed as reduction in tumor weight at 20 mg/kg/day, ip for 15 days; format: functional; details: 360 h, time 15 day
[3] = Microsomal stability in human liver microsomes assessed as parent compound remaining after 60 mins in absence of NADPH regenerating system by LC-MS/MS analysis; format: ADME, Microsome; details: read-out: Stabilty
NCI-H460 [4] = assay: Induction of apoptosis in human NCI-H460 cells assessed as late apoptotic cells at 3 uM incubated for 48 hrs by AnnexinV-FITC/propidium iodide staining based flow cytometric analysis (reference value: 1.36%); format: functional
Cytochrome P450 2D6 = Cytochrome P450 2D6 (Homo sapiens, UniProt P10635); assay: Inhibition of CYP2D6 in human liver microsomes at 10 uM by LC-MS/MS analysis; format: ADME
Cytochrome P450 2D6, sequence (P10635 whole entry): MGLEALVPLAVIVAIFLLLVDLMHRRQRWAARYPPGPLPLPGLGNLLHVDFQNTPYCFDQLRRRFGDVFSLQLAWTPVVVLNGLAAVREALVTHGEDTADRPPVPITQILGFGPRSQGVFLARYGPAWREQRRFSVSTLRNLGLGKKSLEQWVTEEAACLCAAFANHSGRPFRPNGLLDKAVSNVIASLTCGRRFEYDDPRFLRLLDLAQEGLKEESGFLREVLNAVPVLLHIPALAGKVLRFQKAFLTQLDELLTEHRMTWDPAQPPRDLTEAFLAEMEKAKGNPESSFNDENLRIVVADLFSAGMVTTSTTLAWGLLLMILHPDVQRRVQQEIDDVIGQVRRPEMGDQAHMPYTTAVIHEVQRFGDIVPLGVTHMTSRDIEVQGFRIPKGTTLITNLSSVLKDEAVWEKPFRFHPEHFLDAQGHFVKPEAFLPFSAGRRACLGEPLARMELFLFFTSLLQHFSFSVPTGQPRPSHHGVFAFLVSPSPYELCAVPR

[5] = target: T1, Amine oxidase [flavin-containing] B (Homo sapiens, UniProt P27338); assay: Inhibition of N-terminal FLAG-tagged human recombinant MAO-B expressed in baculovirus-infected Sf9 cells by […]
T1 sequence (P27338 whole entry): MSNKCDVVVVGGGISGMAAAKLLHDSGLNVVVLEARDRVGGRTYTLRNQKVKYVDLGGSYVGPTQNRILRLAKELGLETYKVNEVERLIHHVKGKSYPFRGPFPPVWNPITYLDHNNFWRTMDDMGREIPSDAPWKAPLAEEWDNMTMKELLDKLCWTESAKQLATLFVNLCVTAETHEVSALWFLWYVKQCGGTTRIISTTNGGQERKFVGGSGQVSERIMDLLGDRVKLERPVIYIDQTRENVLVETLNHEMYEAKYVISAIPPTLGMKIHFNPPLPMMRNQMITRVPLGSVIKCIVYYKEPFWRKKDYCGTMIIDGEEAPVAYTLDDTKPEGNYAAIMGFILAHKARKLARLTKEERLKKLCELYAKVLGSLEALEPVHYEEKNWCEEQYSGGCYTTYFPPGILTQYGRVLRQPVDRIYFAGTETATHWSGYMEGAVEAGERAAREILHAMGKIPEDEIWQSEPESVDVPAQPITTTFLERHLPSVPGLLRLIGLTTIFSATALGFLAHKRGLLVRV

[6] = target: T2, Amine oxidase [flavin-containing] A (Homo sapiens, UniProt P21397); assay: Inhibition of N-terminal FLAG-tagged human recombinant MAO-A expressed in baculovirus-infected Sf9 cells by […]
T2 sequence (P21397 whole entry): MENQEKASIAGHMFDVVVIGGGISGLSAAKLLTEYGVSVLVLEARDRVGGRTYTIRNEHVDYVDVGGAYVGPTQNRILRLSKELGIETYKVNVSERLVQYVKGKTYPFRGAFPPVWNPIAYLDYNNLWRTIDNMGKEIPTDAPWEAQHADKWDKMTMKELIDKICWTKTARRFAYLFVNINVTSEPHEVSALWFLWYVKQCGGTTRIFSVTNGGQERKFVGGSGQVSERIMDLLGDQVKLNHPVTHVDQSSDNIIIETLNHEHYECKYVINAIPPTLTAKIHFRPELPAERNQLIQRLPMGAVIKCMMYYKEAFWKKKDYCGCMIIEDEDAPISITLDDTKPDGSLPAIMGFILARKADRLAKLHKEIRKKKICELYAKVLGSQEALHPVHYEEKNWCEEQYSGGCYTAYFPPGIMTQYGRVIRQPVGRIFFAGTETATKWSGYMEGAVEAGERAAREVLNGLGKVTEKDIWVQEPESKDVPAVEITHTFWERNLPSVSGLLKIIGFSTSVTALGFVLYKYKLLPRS

NCI-H460 [7] = assay: Induction of apoptosis in human NCI-H460 cells assessed as late apoptotic cells at 2 uM incubated for 48 hrs by AnnexinV-FITC/propidium iodide staining based flow cytometric analysis (reference value: 1.36%); format: functional
MCF7 = assay: cells; details: Homo sapiens, MCF7, 72 h
Description: Antiproliferative activity against human MCF7 cells assessed as reduction in cell viability incubated for 72 hrs by CCK8 assay

[8] = Microsomal stability in human liver microsomes assessed as parent compound remaining after 60 mins in presence of NADPH regenerating system by LC-MS/MS analysis; format: ADME, Microsome; details: read-out: Stabilty
NCI-H460 [9] = assay: Induction of apoptosis in human NCI-H460 cells assessed as late apoptotic cells at 1 uM incubated for 48 hrs by AnnexinV-FITC/propidium iodide staining based flow cytometric analysis (reference value: 1.36%); format: functional
Cytochrome P450 2C19 = Cytochrome P450 2C19 (Homo sapiens, UniProt P33261); assay: Inhibition of CYP2C19 in human liver microsomes at 10 uM by LC-MS/MS analysis; format: ADME
Cytochrome P450 2C19, sequence (P33261 whole entry): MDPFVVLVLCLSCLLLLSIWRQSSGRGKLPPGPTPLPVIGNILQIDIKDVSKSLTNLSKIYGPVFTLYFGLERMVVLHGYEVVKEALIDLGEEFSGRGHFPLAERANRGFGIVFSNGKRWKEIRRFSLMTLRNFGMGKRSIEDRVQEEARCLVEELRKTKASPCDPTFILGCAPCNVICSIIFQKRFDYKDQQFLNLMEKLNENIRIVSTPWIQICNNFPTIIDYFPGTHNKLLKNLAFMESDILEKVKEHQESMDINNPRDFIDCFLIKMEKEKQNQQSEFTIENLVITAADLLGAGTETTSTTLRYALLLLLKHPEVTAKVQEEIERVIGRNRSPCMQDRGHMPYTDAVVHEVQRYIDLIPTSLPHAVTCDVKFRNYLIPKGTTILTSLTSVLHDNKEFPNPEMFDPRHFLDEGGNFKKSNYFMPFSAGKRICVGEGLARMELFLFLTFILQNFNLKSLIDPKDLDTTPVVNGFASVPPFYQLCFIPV

NCI-H460 [10] = assay: Inhibition of cell migration in human NCI-H460 cells assessed as reduction in cell migration measured after 48 hrs by wound healing assay; format: functional, cell-based; details: dose 0.3-1.2 µM
NCI-H460 [11] = assay: Induction of apoptosis in human NCI-H460 cells assessed as early apoptotic cells at 3 uM incubated for 48 hrs by AnnexinV-FITC/propidium iodide staining based flow cytometric analysis (reference value: 2.22%); format: functional
NCI-H460 [12] = assay: Inhibition of cell migration in human NCI-H460 assessed as reduction in cell migration at 0.3 to 1.2 uM by wound healing assay; format: functional, cell-based; details: dose 0.3-1.2 µM, time 24-48 hrs, TDE = time-dependent effect
NCI-H460 [13] = assay: cells; details: Homo sapiens, NCI-H460, 72 h
Description: Antiproliferative activity against human NCI-H460 cells assessed as reduction in cell viability incubated for 72 hrs by CCK8 assay

NCI-H460 [14] = assay: Induction of apoptosis in human NCI-H460 cells assessed as early apoptotic cells at 1 uM incubated for 48 hrs by AnnexinV-FITC/propidium iodide staining based flow cytometric analysis (reference value: 2.22%); format: functional
[15] = Toxicity in BALB/c mouse xenografted with human NCI-H460 cells assessed as body weight at 10 to 20 mg/kg/day, ip for 15 days and measured every 3 days; format: organism-based; details: in vivo, 360 h, dose 10-20 mg/kg/day, time 15 day
NCI-H460 [16] = assay: Induction of apoptosis in human NCI-H460 cells assessed as early apoptotic cells at 2 uM incubated for 48 hrs by AnnexinV-FITC/propidium iodide staining based flow cytometric analysis (reference value: 2.22%); format: functional
Cytochrome P450 1A2 = target: T3, Cytochrome P450 1A2 (Homo sapiens, UniProt P05177); assay: Inhibition of CYP1A2 in human liver microsomes at 10 uM by LC-MS/MS analysis; format: ADME
T3 sequence (P05177 whole entry): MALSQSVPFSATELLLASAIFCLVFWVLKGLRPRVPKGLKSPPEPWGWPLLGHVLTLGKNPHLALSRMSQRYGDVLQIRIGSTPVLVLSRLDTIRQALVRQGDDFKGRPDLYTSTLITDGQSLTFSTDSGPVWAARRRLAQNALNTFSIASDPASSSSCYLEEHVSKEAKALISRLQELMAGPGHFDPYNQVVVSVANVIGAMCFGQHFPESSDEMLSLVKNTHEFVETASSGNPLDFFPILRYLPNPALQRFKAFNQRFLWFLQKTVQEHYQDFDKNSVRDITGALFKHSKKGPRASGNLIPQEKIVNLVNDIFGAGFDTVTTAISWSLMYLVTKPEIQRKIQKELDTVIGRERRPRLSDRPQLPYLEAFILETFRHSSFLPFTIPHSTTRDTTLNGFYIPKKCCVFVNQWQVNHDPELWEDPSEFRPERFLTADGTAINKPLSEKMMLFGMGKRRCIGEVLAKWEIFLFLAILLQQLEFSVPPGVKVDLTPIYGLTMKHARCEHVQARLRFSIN

Cytochrome P450 3A4 = Cytochrome P450 3A4 (Homo sapiens, UniProt P08684); assay: Inhibition of CYP3A4 in human liver microsomes at 10 uM by LC-MS/MS analysis; format: ADME
Cytochrome P450 3A4, sequence (P08684 whole entry): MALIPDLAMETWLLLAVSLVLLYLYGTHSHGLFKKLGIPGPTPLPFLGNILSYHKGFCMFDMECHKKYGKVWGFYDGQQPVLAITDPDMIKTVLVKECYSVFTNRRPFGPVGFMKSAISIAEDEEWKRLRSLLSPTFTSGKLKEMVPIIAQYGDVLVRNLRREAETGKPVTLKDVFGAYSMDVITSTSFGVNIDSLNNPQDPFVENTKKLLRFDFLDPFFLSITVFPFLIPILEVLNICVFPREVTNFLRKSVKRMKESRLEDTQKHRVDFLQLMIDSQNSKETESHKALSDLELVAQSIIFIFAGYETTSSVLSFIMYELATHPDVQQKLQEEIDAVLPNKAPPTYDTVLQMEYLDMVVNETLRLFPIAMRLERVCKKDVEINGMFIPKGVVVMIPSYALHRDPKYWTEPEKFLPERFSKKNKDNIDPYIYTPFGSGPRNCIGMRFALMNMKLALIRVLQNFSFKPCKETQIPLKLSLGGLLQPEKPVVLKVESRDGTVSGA

A549 = assay: cells; details: Homo sapiens, A549, 72 h
Description: Antiproliferative activity against human A549 cells assessed as reduction in cell viability incubated for 72 hrs by CCK8 assay

THLE-2 = assay: cells; details: Homo sapiens, THLE-2, 72 h
Description: Cytotoxicity against human THLE-2 cells assessed as reduction in cell viability incubated for 72 hrs by CCK8 assay

Cytochrome P450 2C9 = Cytochrome P450 2C9 (Homo sapiens, UniProt P11712); assay: Inhibition of CYP2C9 in human liver microsomes at 10 uM by LC-MS/MS analysis; format: ADME
Cytochrome P450 2C9, sequence (P11712 whole entry): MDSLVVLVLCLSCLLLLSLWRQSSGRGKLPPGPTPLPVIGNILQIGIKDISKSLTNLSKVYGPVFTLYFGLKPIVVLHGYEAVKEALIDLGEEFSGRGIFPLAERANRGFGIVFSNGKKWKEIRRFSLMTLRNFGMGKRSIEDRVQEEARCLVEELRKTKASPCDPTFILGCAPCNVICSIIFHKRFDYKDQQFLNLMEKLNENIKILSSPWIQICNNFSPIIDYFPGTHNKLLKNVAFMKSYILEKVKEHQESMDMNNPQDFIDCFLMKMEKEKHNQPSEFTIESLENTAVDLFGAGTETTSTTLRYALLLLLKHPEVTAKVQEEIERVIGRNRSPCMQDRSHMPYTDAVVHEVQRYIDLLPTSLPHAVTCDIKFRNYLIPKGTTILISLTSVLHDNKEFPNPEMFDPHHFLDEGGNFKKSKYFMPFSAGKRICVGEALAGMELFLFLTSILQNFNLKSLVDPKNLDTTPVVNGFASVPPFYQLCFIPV

MGC-803 = assay: cells; details: Homo sapiens, MGC-803, 72 h
Description: Antiproliferative activity against human MGC-803 cells assessed as reduction in cell viability incubated for 72 hrs by CCK8 assay

THP-1 = assay: cells; details: Homo sapiens, THP-1, 72 h
Description: Antiproliferative activity against human THP-1 cells assessed as reduction in cell viability incubated for 72 hrs by CCK8 assay

Question: For `Cc1ccc(-c2cc3occ(CN4CCC[C@H](N)C4)c3cc2-c2ccc(C#N)cc2)cc1`, which inhibition in vivo at 20 mg/kg/day (NCI-H460 [1]) is on record?
Answer: 68%

Question: And the inhibition in vivo at 20 mg/kg/day (NCI-H460 [2])?
Answer: 64%

Question: What about the remaining at 1 h [3] of the same molecule?
Answer: 76.1%

Question: What about the Activity (NCI-H460 [4]) of the same molecule?
Answer: 11.01%

Question: What about the “inhibition (INH)” value (Cytochrome P450 2D6) of the same molecule?
Answer: Active

Question: What about the IC50 [5] of the same molecule?
Answer: > 20 µM

Question: And the IC50 [6]?
Answer: > 20 µM

Question: And the Activity (NCI-H460 [7])?
Answer: 2.77%

Question: What about the IC50 (MCF7) of the same molecule?
Answer: 2.9 µM

Question: What about the remaining at 1 h [8] of the same molecule?
Answer: 47%

Question: And the Activity (NCI-H460 [9])?
Answer: 0.87%

Question: And the “inhibition (INH)” value (Cytochrome P450 2C19)?
Answer: Active

Question: What about the inhibition (NCI-H460 [10]) of the same molecule?
Answer: Dose-Dependent Effect

Question: What about the Activity (NCI-H460 [11]) of the same molecule?
Answer: 19.13%

Question: What about the inhibition (NCI-H460 [12]) of the same molecule?
Answer: Tde

Question: And the IC50 (NCI-H460 [13])?
Answer: 2.06 µM

Question: What about the Activity (NCI-H460 [14]) of the same molecule?
Answer: 2.22%

Question: What about the Activity [15] of the same molecule?
Answer: Non-Toxic

Question: What about the Activity (NCI-H460 [16]) of the same molecule?
Answer: 6.78%

Question: What about the “inhibition (INH)” value (Cytochrome P450 1A2) of the same molecule?
Answer: Active

Question: And the “inhibition (INH)” value (Cytochrome P450 3A4)?
Answer: Active

Question: What about the IC50 (A549) of the same molecule?
Answer: 5.74 µM

Question: What about the IC50 (THLE-2) of the same molecule?
Answer: 7.07 µM

Question: What about the “inhibition (INH)” value (Cytochrome P450 2C9) of the same molecule?
Answer: Active

Question: And the IC50 (MGC-803)?
Answer: 5.85 µM

Question: What about the IC50 (THP-1) of the same molecule?
Answer: 6.15 µM
